{"source": "patent US20250222011A1", "about": "“DRUG TARGET FOR INHIBITING TUMOR, USE, AND ORAL DRUG” (CHI BIOTECH CO., LTD., priority 2024, published 2025)", "key": {"[1]": {"tested_on": "normal lung cells HBE", "experiment": "Apoptosis by Annexin V and propidium iodide staining, flow cytometry", "format": "cell-based", "conditions": "0.5 mg/mL ATCA"}, "[2]": {"tested_on": "H1299 cells", "experiment": "Transcriptome sequencing with KEGG pathway enrichment of down-regulated genes", "format": "cell-based, human", "conditions": "1 mg/mL ATCA, 48 h, FIG. 7", "description": "1 mg/mL ATCA was added to the culture medium of a T75 cell culture flask filled with three million of H1299 cells as a treatment group, and an equal volume of PBS was added as a control group. After ATCA treatment for 48 h, the cultured supernatant was discarded, and the cells were placed on ice, washed twice with pre-cooled PBS. The PBS was discarded, 5 mL of pre-cooled Trizol (total RNA extraction reagent) was added, mixed by shaking thoroughly. […]"}, "[3]": {"tested_on": "HER2", "experiment": "Western blotting of HER2 expression after ATCA treatment", "format": "cell-based", "conditions": "FIG. 4"}, "[4]": {"tested_on": "lung adenocarcinoma cells H1299", "experiment": "Apoptosis by Annexin V and propidium iodide staining, flow cytometry", "format": "cell-based", "conditions": "0.5 mg/mL ATCA, P<0.05, n=4", "text": "(§1) In the experiment of ATCA inducing apoptosis in lung cancer cells, Annexin V and propidium iodide were used to stain the cancer cells and then detected by flow cytometry."}, "[5]": {"tested_on": "lung adenocarcinoma cells A549", "experiment": "Apoptosis by Annexin V and propidium iodide staining, flow cytometry", "format": "cell-based", "conditions": "0.5 mg/mL ATCA, P<0.05, n=4", "text": "as §1"}, "[6]": {"tested_on": "phosphorylated EIF2S1", "experiment": "Western blotting detection of EIF2A phosphorylation", "format": "cell-based", "conditions": "1 mM of ATCA for 48 h, FIG. 3", "description": "Western Blotting method: the sample and molecular weight standard of pre-stained protein were loaded onto an SDS-PAGE gel (10 cm×10 cm) to allow electrophoresis at 100 V for 40 min. After treating for 1 h at 100 V, 230 mA, the protein in SDS-PAGE was transferred to a nitrocellulose membrane. After transfer, the nitrocellulose membrane was washed with 25 mL of TBS for 5 min at room temperature. The nitrocellulose membrane was placed in 25 mL of blocking buffer (TBST, 5% skim milk) and incubated at room temperature for 1 h. The membrane was washed three times with 15 mL TBST, 5 min each time. The membrane and phosphorylated EIF2S1 primary antibody (diluted at 1:1500) were placed in 10 mL of a primary antibody dilution buffer and incubated overnight at 4° C. with gentle shaking at certain intervals. The membrane was washed three times with 15 mL TBST, 5 min each time. A rabbit secondary antibody was prepared with 5% skim milk at a ratio of 1:2000 and incubated at room temperature for 1.5 h. The membrane was washed three times with 15 mL TBST, 5 min each time. The membrane was incubated with 10 mL of LumiGLO® (0.5 mL 20× LumiGLO®, 0.5 mL 20× peroxide, and 9.0 mL purified water) at room temperature for 1 min with gentle agitation at certain intervals. The excess developer on the membrane was drained (no drying), wrapped in plastic film, and then developed with a BIO-RAD developer."}, "[7]": {"tested_on": "ovarian cancer cells", "experiment": "Apoptosis of ovarian cancer cells (other experiments)", "format": "cell-based"}, "[8]": {"tested_on": "polyribosomes", "experiment": "Polysome profiling (cell translation initiation efficiency)", "format": "cell-based", "conditions": "1 mg/mL, FIG. 5", "description": "Polysome profiling: cells were plated in a 75 T flask with 2 million cells per flask and allowed to adhere for 24 h, and the ACTA was added to the experimental group to make a concentration of the working solution at 1 mg/mL. The control group was replaced with a new medium. Samples were collected after 24 h and 48 h of ATCA treatment. The medium was aspirated, the samples were washed twice with PBS, and 2 mL of Lysis Buffer (RB Buffer, 1% Ttiton X-100, and 10 μg/μL cycloheximide) was added to allow lysis for 30 min on ice, and a resulting lysate was pipetted into an RNase-free EP tube. […] After centrifugation for 4 h and 10 min at 4° C. and 25,400 rpm, high-performance liquid chromatography (HPLC) was conducted to allow relative quantitative analysis of polyribosomes, monoribosomes, and large and small subunits of ribosomes."}}, "data": [{"smiles": "O=C(O)C1=CC(=C(c2ccc(O)c(C(=O)O)c2)c2ccc(O)c(C(=O)O)c2)C=CC1=O", "note": "[ATCA, aurintricarboxylic acid]", "values": [{"measurement": "apoptosis of normal lung cells HBE", "setting": "[1]", "result": "did not show apoptosis"}, {"measurement": "further significantly down-regulated pathways (KEGG enrichment)", "setting": "[2]", "result": "platinum drug-resistance, TGF-beta signaling pathway, signaling pathways regulating pluripotency of stem cells, and FoxO signaling pathway"}, {"measurement": "most significantly down-regulated pathway (KEGG enrichment)", "setting": "[2]", "result": "cell cycle"}, {"measurement": "HER2 expression", "setting": "[3]", "result": "downregulation"}, {"measurement": "apoptosis of H1299 cells", "setting": "[4]", "result": "significant apoptosis"}, {"measurement": "apoptosis of A549 cells", "setting": "[5]", "result": "significant apoptosis"}, {"measurement": "EIF2S1 phosphorylation abundance", "setting": "[6]", "result": "did not affect its phosphorylation abundance"}, {"measurement": "apoptosis of ovarian cancer cells", "setting": "[7]", "result": "induce apoptosis"}, {"measurement": "polysome distribution curve", "setting": "[8]; 24 h after adding the drug", "result": "did not change much"}, {"measurement": "polyribosome fraction", "setting": "[8]; 48 h after adding the drug", "result": "significantly reduced"}, {"measurement": "translation elongation", "setting": "[8]", "result": "did not affect translation elongation"}]}]}
